Patent US20040214799A1, “Cancerous metastasis inhibitors containing carbacyclic phosphatidic acid derivatives” (priority 2001, published 2004)

How the values were obtained:
MM1 cells [1] = assay: Effect on the proliferation of MM1 cells; type: cell-based, rat; conditions: 12.5 μM or 25 μM cPA, 10% FBS, 24 hours and 72 hours
Procedure: 12.5 μM and 25 μM cPA were added to media containing 10% FBS, and then the cells were cultured under conditions of 37° C. and 5% CO2 for 24 hours and 72 hours. The number of the MM1 cells was counted using a hemocytometer.

MM1 cells [2] = conditions: Int. J. Cancer 81, 918-922 (1999), cited from earlier work; for invasion suppressing action on LPA-induced invasion (in words): reported by Mukai et al.; for suppressed LPA-induced invasion by: studied by Mukai et al.
HT-1080 cells = assay: In vitro invasion assay of HT-1080 cells in the absence of serum/LPA; type: cell-based, human
Procedure: HT-1080 cells were cultured under conditions of 37° C. and 5% CO2 in Eagle's MEMI (Nissui) supplemented with a one-hundredth volume of nonessential amino acid solution (GIBCO BRL) and 10% FBS. […] 4 hours later, the cells were fixed, and then the cells that had invaded were counted.

MM1 cells [3] = assay: Measurement of intracellular cAMP in MM1 cells; type: cell-based, rat; conditions: 25 μM cPA or 10 μM Forskolin, pretreated with 1 mM IBMX
Procedure: After a certain time period, 10% ice-cooled TCA was added to stop the reaction. The centrifuged supernatant was washed 4 times with water-saturated diethylether to remove TCA, and then placed under nitrogen gas flow at 60° C. to remove the solvent completely. cAMP in the resultant sample was measured using a cyclic AMP [^3H] assay system (Amersham).

MM1 cells [4] = assay: In vitro invasion assay, LPA-induced invasion of MM1 cells across mesothelial cell monolayer; type: cell-based, rat; conditions: 25 μM cPA derivative, 25 μM LPA, 20 hours
Procedure: (§1) The abdomen of a male DONRYU rat (300 g, NIPPON BIO-SUPP. CENTER) was opened aseptically. The thus obtained mesenterium was treated with 0.25% trypsin at 37° C. for 15 minutes, filtrated with a 150 μm stainless mesh, and then centrifuged to collect mesothelial cells. The cells were cultured under conditions of 37° C. and 5% CO2 in a medium which was obtained by adding 10% FBS to Eagle's MEMI (Nissui) supplemented with Eagle's MEM amino acid vitamin medium (Nissui) in a volume twice as great as that of the MEMI. A mesothelial cell monolayer which had reached a confluent density after 1 week of culturing was used for invasion assay.
(§2) The MM1 cells, which are highly invasive clones of rat ascites hepatoma cells (AH-130), were established by Mukai et al., (Int. J. Cancer : 81, 918-922 (1999)), and was cultured under the same conditions as those for mesothelial cells.
(§3) In vitro invasion assay was developed by Akedo et al (Akedo, H et al., Cancer Res. 46, 2416-2422 (1986)). MM1 cells were multi-layer-cultured on the mesothelial cell layer, which had been grown to reach a confluent density, in the presence of 10% FBS or 25 μM LPA (SIGMA). 25 μM cPA was then added. The cells were cultured under conditions of 37° C. and 5% CO2 for 20 hours, and then fixed with 10% formalin. The number of colonies of MM1 cells that had invaded was counted under a phase-contrast microscope (FIG. 3).
cPA and LPA were ice-cooled in PBS containing 0.1% fatty-acid free BSA (SIGMA), ultrasonicated, emulsified, stored at −20° C., and then used.
0.5 μM, 1 μM and 10 μM carba-cPA were added to MM1 cells, and then in vitro invasion assay was performed similarly to (1-1) in the presence of 25 μM LPA.
The following reagents were respectively added to an in vitro invasion assay system so as to examine their effects on MM1 cell invasion in the presence of 25 μM LPA: Forskolin (Wako) which directly activates adenylate cyclase (cAMP synthase); cholera toxin (CTX) (GIBCO BRL) which prevent the deactivation of G protein (Gs) which activates adenylate cyclase; Bt2cAMP (nacalai tesque) which can pass through the membrane and functions in a manner similar to that of cAMP when it enters the cell; or isobutylmethylxanthine (IBMX, 3-isobutyl-1-methylxanthine) (SIGMA) which inhibits phosphodiesterase (cAMP degrading enzyme).

MM1 cells [5] = assay: In vitro invasion assay, FBS-induced invasion of MM1 cells; type: cell-based, rat; conditions: 25 μM cPA derivative, 10% FBS, 20 hours
Procedure: as §1, §2
as §3, with “3). […]” for “3).”

| Molecule | effect on MM1 cell proliferation (in words) (MM1 cells [1]) | suppressed LPA-induced invasion by (MM1 cells [2]) | also measured |
| --- | --- | --- | --- |
| CCCCCCCC/C=C\CCCCCCCC(=O)OC[C@@H]1COP(=O)(O)O1 [Ole-cPA] | proliferation suppressing activity | approximately 60% | invasion suppressing action on LPA-induced invasion (in words) (MM1 cells [2]): weak |
| carba-Pal-cPA [cPA-18] | no effect on MM1 cell proliferation | – | invasion suppressing activity on HT-1080 cells (in words) (HT-1080 cells; 10 μM cPA, absence of serum/LPA, 4 hours): invasion suppressing activity on the cells at the same strength as or a level stronger than that exhibited by natural cPA; change of intracellular cAMP concentration (in words) (MM1 cells [3]; listed as Carba-Pal-cPA): a similar result was obtained; change of intracellular cAMP concentration (in words) (MM1 cells [3]; listed as carba-Pal-cPA): the change of cAMP concentration was not observed |
| CCCCCC/C=C\CCCCCCCC(=O)OCC1COP(=O)([O-])O1.[Na+] (stereo not shown) [ΔPal-cPA] | proliferation suppressing activity | around 50% | invasion suppressing action on LPA-induced invasion (in words) (MM1 cells [2]): weak |
| CCCCCCCCCCCC(=O)OCC1COP(=O)([O-])O1.[Na+] (stereo not shown) [Lau-cPA] | – | around 50% | – |
| CCCCCCCCCCCCCCCCCCCC(=O)OCC1COP(=O)([O-])O1.[Na+] (stereo not shown) [Ara-cPA] | – | around 50% | – |
| lysophosphatidic acid [LPA, reference compound] | – | – | promotion of HT-1080 cell invasion (in words) (HT-1080 cells; 25 μM LPA added): the invasion was no longer promoted |
| CCCCCC[C@@H]1C[C@@H]1CCCCCCCC(=O)OC[C@@H]1COP(=O)(O)O1 [PHYLPA] | – | around 50% | – |
| CCC=CCC=CCC=CCC=CCC=CCCCC(=O)OCC1COP(=O)(O)O1 (stereo not shown) [cPA-12] | – | – | suppression of LPA-induced invasion (in words) (MM1 cells [4]): not suppressed; suppression of FBS-induced invasion (MM1 cells [5]): approximately 70% |
